The values that follow come from US12509444B2, “Compounds and methods for CD73 modulation and indications therefor” (Plexxikon Inc., priority 2019, dated 2025).

By IC50 is commonly meant the concentration that inhibits the measured activity by half.

The target of experiment [1] is T1, human CD73 (Homo sapiens, UniProt P21589).
T1 construct: expressed in transfected cells
T1 sequence (P21589 27-549): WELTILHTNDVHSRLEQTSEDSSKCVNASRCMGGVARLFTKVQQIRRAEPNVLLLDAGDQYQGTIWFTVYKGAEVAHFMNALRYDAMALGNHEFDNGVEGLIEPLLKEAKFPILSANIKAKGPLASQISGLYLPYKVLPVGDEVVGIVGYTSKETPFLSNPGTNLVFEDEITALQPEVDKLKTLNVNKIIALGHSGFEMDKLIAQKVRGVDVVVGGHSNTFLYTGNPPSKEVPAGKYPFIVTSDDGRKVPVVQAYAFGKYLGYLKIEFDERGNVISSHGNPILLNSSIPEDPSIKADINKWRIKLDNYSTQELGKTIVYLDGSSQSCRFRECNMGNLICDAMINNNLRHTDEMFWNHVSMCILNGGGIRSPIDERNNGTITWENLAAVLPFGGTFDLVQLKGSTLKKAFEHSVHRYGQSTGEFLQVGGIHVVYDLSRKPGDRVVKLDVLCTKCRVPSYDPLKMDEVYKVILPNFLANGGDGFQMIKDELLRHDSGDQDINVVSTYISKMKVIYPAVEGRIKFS
Description: Inhibitor activity against CD73 in cell based assay (CD73 expressing CHO-K1 cells). As to conditions: CHO-K1 cells expressing human CD73, 150 μM AMP, 4 hours of incubation; read-out: CHO-K1 CELL VARIANT: CD73 IC50. The method, boiled down: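 Stably transfected CHO-K1 cells expressing human CD73 (1×10^4/well) incubated 4 h with compound (8-point 1:3 titration, top 10 μM final, 0.2% DMSO) and 150 μM AMP. Residual AMP in supernatant measured by CellTiter-Glo luminescence with 1 μM ATP after 30 min at room temperature; IC50 by nonlinear regression of percent inhibition vs high/low controls.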

The target of experiment [2] is T2, Human CD73 (amino acid residues 27-549) (Homo sapiens, UniProt P21589).
T2 construct: Human CD73 (amino acid residues 27-549); His tag (N); made in house; host or cells: E. coli
T2 sequence (P21589 27-549): T1 sequence (P21589 27-549)
Description: CD73 enzymatic assay (luciferase-based indirect assay, CellTiter-Glo). As to conditions: 0.4 nM CD73, 150 μM AMP, 1 hour at room temperature. The format is biochemical. The method, boiled down:
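His-tagged human CD73 (27-549) from E. coli, 0.4 nM, with 150 μM AMP in 50 mM HEPES pH 7.4, 0.01% Tween 20; 1 h at room temperature. AMP remaining read by CellTiter-Glo 2.0 luminescence with 1 μM final ATP after 30 min. IC50 from nonlinear regression of % inhibition.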
On the technique in general: In ATP-based viability assays light output follows the ATP content of the culture.

In the case of `O=C(NC1CC2CCC1O2)O[C@@H]1CCN(c2cnn(CCO)c(=O)c2Cl)C1` (stereo partly drawn) [P-0451, (R)-1-(5-chloro-1-(2-hydroxyethyl)-6-oxo-1,6-dihydropyridazin-4-yl)pyrrolidin-3-yl (7-oxabicyclo[2.2.1]heptan-2-yl)carbamate], the 50% inhibitory concentration (IC50) in experiment [1] and in experiment [2] was 0.001 to 10 µM throughout.
In the case of `CC1(NC(=O)O[C@@H]2CCN(c3cnn(CCO)c(=O)c3Cl)C2)CCCC1` [P-0452, (R)-1-(5-chloro-1-(2-hydroxyethyl)-6-oxo-1,6-dihydropyridazin-4-yl)pyrrolidin-3-yl (1-methylcyclopentyl)carbamate], the IC50 in experiment [1] and in experiment [2] was 0.001 to 10 µM throughout.
As to `O=C(NC1CC2C(C1)C2(F)F)O[C@@H]1CCN(c2cnn(CCO)c(=O)c2Cl)C1` (stereo partly drawn) [P-0453, (R)-1-(5-chloro-1-(2-hydroxyethyl)-6-oxo-1,6-dihydropyridazin-4-yl)pyrrolidin-3-yl (6,6-difluorobicyclo[3.1.0]hexan-3-yl)carbamate], the IC50 in experiment [1] and in experiment [2] was 0.001 to 10 µM throughout.
For `O=C(N[C@@H]1CCC(F)(F)C1)O[C@@H]1CCN(c2cn[nH]c(=O)c2Cl)C1` [P-0454, (R)-1-(5-chloro-6-oxo-1,6-dihydropyridazin-4-yl)pyrrolidin-3-yl ((R)-3,3-difluorocyclopentyl)carbamate], the concentration for half-maximal inhibition (IC50) in experiment [1] and in experiment [2] was 0.001 to 10 µM each time.
Regarding `O=C(N[C@H]1CCC[C@H]1O)O[C@@H]1CCN(c2cn[nH]c(=O)c2Cl)C1` [P-0455, (R)-1-(5-chloro-6-oxo-1,6-dihydropyridazin-4-yl)pyrrolidin-3-yl ((1S,2R)-2-hydroxycyclopentyl)carbamate], the IC50 in experiment [1] was 10 to 100 µM; in experiment [2], 0.001 to 10 µM.
With `CCOC(=O)[C@@H]1CCC[C@H]1NC(=O)O[C@@H]1CCN(c2cn[nH]c(=O)c2Cl)C1` [P-0456, ethyl (1R,2R)-2-(((((R)-1-(5-chloro-6-oxo-1,6-dihydropyridazin-4-yl)pyrrolidin-3-yl)oxy)carbonyl)amino) cyclopentane-1-carboxylate], the IC50 in experiment [1] and in experiment [2] was 0.001 to 10 µM in each case.
On to `O=C(N[C@@H]1CC[C@@H](O)C1)O[C@@H]1CCN(c2cn[nH]c(=O)c2Cl)C1` [P-0457, (R)-1-(5-chloro-6-oxo-1,6-dihydropyridazin-4-yl)pyrrolidin-3-yl ((1R,3R)-3-hydroxycyclopentyl)carbamate], for which the IC50 in experiment [1] and in experiment [2] was 0.001 to 10 µM throughout.
Consider `O=C(N[C@H]1CC[C@H](O)C1)O[C@@H]1CCN(c2cn[nH]c(=O)c2Cl)C1` [P-0458, (R)-1-(5-chloro-6-oxo-1,6-dihydropyridazin-4-yl)pyrrolidin-3-yl ((1S,3S)-3-hydroxycyclopentyl)carbamate], for which the 50% inhibitory concentration (IC50) in experiment [1] and in experiment [2] was 0.001 to 10 µM throughout.
As to `O=C(N[C@H]1CC[C@@H](O)C1)O[C@@H]1CCN(c2cn[nH]c(=O)c2Cl)C1` [P-0459, (R)-1-(5-chloro-6-oxo-1,6-dihydropyridazin-4-yl)pyrrolidin-3-yl ((1S,3R)-3-hydroxycyclopentyl)carbamate], the IC50 in experiment [1] and in experiment [2] was 0.001 to 10 µM throughout.
On to `O=C(N[C@@H]1CC[C@H](O)C1)O[C@@H]1CCN(c2cn[nH]c(=O)c2Cl)C1` [P-0460, (R)-1-(5-chloro-6-oxo-1,6-dihydropyridazin-4-yl)pyrrolidin-3-yl ((1R,3S)-3-hydroxycyclopentyl)carbamate], for which the IC50 in experiment [1] and in experiment [2] was 0.001 to 10 µM throughout.
On to `O=C(NC1CCCC1=O)O[C@@H]1CCN(c2cn[nH]c(=O)c2Cl)C1` (stereo partly drawn) [P-0461, (R)-1-(5-chloro-6-oxo-1,6-dihydropyridazin-4-yl)pyrrolidin-3-yl (2-oxocyclopentyl)carbamate], for which the IC50 in experiment [1] and in experiment [2] was 0.001 to 10 µM each time.
For the molecule `O=C(NC1CCCC1)O[C@H]1CN(c2cn[nH]c(=O)c2Cl)C[C@@H]1F` [P-0462, (3S,4S)-1-(5-chloro-6-oxo-1,6-dihydropyridazin-4-yl)-4-fluoropyrrolidin-3-yl cyclopentylcarbamate], the IC50 in experiment [1] and in experiment [2] was 0.001 to 10 µM each time.
Consider `O=C(NC1CCC(F)(F)CC1)O[C@H]1CN(c2cn[nH]c(=O)c2Cl)C[C@@H]1F` [P-0463, (3S,4S)-1-(5-chloro-6-oxo-1,6-dihydropyridazin-4-yl)-4-fluoropyrrolidin-3-yl (4,4-difluorocyclohexyl)carbamate], for which the IC50 in experiment [1] and in experiment [2] was 0.001 to 10 µM each time.
Regarding `O=C(NC1CCN(C(=O)C2(c3ccccc3)CC2)CC1)O[C@@H]1CCN(c2cn[nH]c(=O)c2Cl)C1` [P-0464, (R)-1-(5-chloro-6-oxo-1,6-dihydropyridazin-4-yl)pyrrolidin-3-yl (1-(1-phenylcyclopropane-1-carbonyl)piperidin-4-yl)carbamate], the IC50 in experiment [1] and in experiment [2] was 0.001 to 10 µM in each case.
As for `O=C(NC1CCN(C(=O)C2(c3cccc(Br)c3)CC2)CC1)O[C@@H]1CCN(c2cn[nH]c(=O)c2Cl)C1` [P-0465, (R)-1-(5-chloro-6-oxo-1,6-dihydropyridazin-4-yl)pyrrolidin-3-yl (1-(1-(3-bromophenyl)cyclopropane-1-carbonyl)piperidin-4-yl)carbamate], the half-inhibitory concentration (IC50) in experiment [1] and in experiment [2] was 0.001 to 10 µM each time.
Regarding `Cc1noc(C)c1CC(=O)N1CCC(NC(=O)O[C@@H]2CCN(c3cn[nH]c(=O)c3Cl)C2)CC1` [P-0466, (R)-1-(5-chloro-6-oxo-1,6-dihydropyridazin-4-yl)pyrrolidin-3-yl (1-(2-(3,5-dimethylisoxazol-4-yl)acetyl)piperidin-4-yl)carbamate], the 50% inhibitory concentration (IC50) in experiment [1] and in experiment [2] was 0.001 to 10 µM each time.
For `O=C(N[C@@H]1CCC(F)(F)C1)O[C@@H]1CCN(c2cnn(CCO)c(=O)c2Cl)C1` [P-0467, (R)-1-(5-chloro-1-(2-hydroxyethyl)-6-oxo-1,6-dihydropyridazin-4-yl)pyrrolidin-3-yl ((R)-3,3-difluorocyclopentyl)carbamate], the IC50 in experiment [1] and in experiment [2] was 0.001 to 10 µM throughout.
For the molecule `NCCn1ncc(N2CC[C@@H](OC(=O)N[C@@H]3CCC(F)(F)C3)C2)c(Cl)c1=O` [P-0468, (R)-1-(1-(2-aminoethyl)-5-chloro-6-oxo-1,6-dihydropyridazin-4-yl)pyrrolidin-3-yl ((R)-3,3-difluorocyclopentyl)carbamate], the 50% inhibitory concentration (IC50) in experiment [1] and in experiment [2] was 0.001 to 10 µM in each case.
Regarding `O=C(N[C@@H]1CCC[C@H]1C(=O)O)O[C@@H]1CCN(c2cn[nH]c(=O)c2Cl)C1` [P-0469, (1R,2R)-2-(((((R)-1-(5-chloro-6-oxo-1,6-dihydropyridazin-4-yl)pyrrolidin-3-yl)oxy)carbonyl)amino) cyclopentane-1-carboxylic acid], the half-maximal inhibitory concentration (IC50) in experiment [1] and in experiment [2] was 0.001 to 10 µM throughout.
Regarding `O=C(N[C@H]1CCC[C@@H]1O)O[C@@H]1CCN(c2cn[nH]c(=O)c2Cl)C1` [P-0471, (R)-1-(5-chloro-6-oxo-1,6-dihydropyridazin-4-yl)pyrrolidin-3-yl ((1S,2S)-2-hydroxycyclopentyl)carbamate], the concentration for half-maximal inhibition (IC50) in experiment [1] and in experiment [2] was 0.001 to 10 µM in each case.
Take `CC(C)(C(=O)N1CCC(NC(=O)O[C@@H]2CCN(c3cn[nH]c(=O)c3Cl)C2)CC1)c1ccc(F)cc1` [P-0472, (R)-1-(5-chloro-6-oxo-1,6-dihydropyridazin-4-yl)pyrrolidin-3-yl (1-(2-(4-fluorophenyl)-2-methylpropanoyl)piperidin-4-yl)carbamate]: the 50% inhibitory concentration (IC50) in experiment [1] and in experiment [2] was 0.001 to 10 µM each time.
